Laboratory results from article PMC10035947, “Development of novel anilinoquinazoline-based carboxylic acids as non-classical carbonic anhydrase IX and XII inhibitors” (Journal of Enzyme Inhibition and Medicinal Chemistry, 2023).
Read-outs that look alike come from different tables or passages of the source.

Legend:
hCA II = molecular target: T1, hCA II (Homo sapiens, UniProt P00918); assay: stopped flow CO2 hydrase assay; assay type: biochemical; conditions: mean from 3 assays
T1 construct: made in house
Experimental: Carbonic anhydrase inhibition assay
The carbonic anhydrase catalyzed CO2 hydration actions for the quinazoline-based carboxylic acid derivatives (6a-c, 7a-c and 8a-c) were assayed utilizing an instrument of Applied Photophysics stopped-flow, as described previously. The enzymes are recombinant proteins prepared in our lab. Phenol red (at a concentration of 0.2 mM) has been used as indicator, working at the absorbance maximum of 557 nm, with 20 mM Hepes (pH 7.5) as buffer, and 20 mM Na2SO4 (for maintaining constant the ionic strength), following the initial rates of the CA- […]
1.7 to 17 mM for the determination of the kinetic parameters and inhibition constants. For each inhibitor at least six traces of the initial 5-10% of the reaction have been used for determining the initial velocity. The uncatalyzed rates were determined in the same manner and subtracted from the total observed rates. Stock solutions of inhibitor (0.1 mM) were prepared in distilled-deionized water and dilutions up to 0.01 nM were done thereafter with the assay buffer. Inhibitor and enzyme solutions were preincubated together for 15 min at room temperature prior to assay, in order to allow for the formation of the E-I complex. The inhibition constants were obtained by non-linear least-squares methods using PRISM 3 and the Cheng-Prusoff equation, and represent the mean from at least three different determinations.

K-562 = assay: NCI SRB assay; assay type: cell-based, human; conditions: for CC50: read-out: LC50 (the source's name)
KM12 = assay: NCI SRB assay; assay type: cell-based, human
M14 = assay: NCI SRB assay; assay type: cell-based, human; conditions: for CC50: read-out: LC50 (the source's name)
OVCAR-3 = assay: NCI SRB assay; assay type: cell-based, human
NCI-H23 = assay: NCI SRB assay; assay type: cell-based, human
U251 = assay: NCI SRB assay; assay type: cell-based, human; conditions: for CC50: read-out: LC50 (the source's name)
MOLT-4 = assay: NCI SRB assay; assay type: cell-based, human; conditions: for CC50: read-out: LC50 (the source's name)
ACHN = assay: NCI SRB assay; assay type: cell-based, human; conditions: for GI50 / TGI / CC50: 5-dose; for CC50: read-out: LC50 (the source's name)
SK-MEL-28 = assay: NCI SRB assay; assay type: cell-based, human; conditions: for CC50: read-out: LC50 (the source's name)
MDA-MB-435 = assay: NCI SRB assay; assay type: cell-based; conditions: for CC50: read-out: LC50 (the source's name)
TK-10 = assay: NCI SRB assay; assay type: cell-based, human; conditions: for CC50: read-out: LC50 (the source's name)
SF-295 = assay: NCI SRB assay; assay type: cell-based, human
[1] = test system: 59 human cancer cell lines representing nine tumour subpanels; assay: NCI SRB assay, panel and subpanel summaries; conditions: for GI50: Homo sapiens
[2] = Homo sapiens, K562, K-562, 5-dose
[3] = Homo sapiens, KM12, KM 12, 5-dose
[4] = Homo sapiens, U-251, U251, 5-dose

Question: Which Ki (hCA II) does the source give for `Cc1ccc(-c2nc(Nc3ccccc3C(=O)O)c3ccccc3n2)cc1` [6b, 2-((2-(p-Tolyl)quinazolin-4-yl)amino)benzoic acid] here?
Answer: 48.2 µM

Question: And the GI50 (K-562; [2])?
Answer: 7.05 µM

Question: What about the CC50 (K-562; [2]) of the same molecule?
Answer: > 100 µM

Question: What about the GI% (K-562; K-562, 10 μM) of the same molecule?
Answer: 82%

Question: And the “Growth Percent” value (K-562; K-562, 1.00E-5 Molar)?
Answer: 17.64%

Question: And the TGI (K-562; K-562, 5-dose)?
Answer: <100 µM

Question: What about the TGI (K-562; K-562, 5-dose, listed as D - 835857) of the same molecule?
Answer: > 1.00E-4 Molar

Question: What about the CC50 (K-562; K-562, 5-dose) of the same molecule?
Answer: < 100 µM

Question: What about the LC50 (KM12; [3]) of the same molecule?
Answer: < 100 µM

Question: And the LC50 (KM12; Homo sapiens, KM12, KM12, 5-dose)?
Answer: > 100 µM

Question: And the GI50 (KM12; [3])?
Answer: 13.7 µM

Question: What about the GI% (KM12; KM12, 10 μM) of the same molecule?
Answer: 92%

Question: What about the “Growth Percent” value (KM12; KM12, 1.00E-5 Molar) of the same molecule?
Answer: 8.37%

Question: What about the TGI (KM12; KM 12, 5-dose) of the same molecule?
Answer: 81.2 µM

Question: What about the TGI (KM12; KM12, 5-dose) of the same molecule?
Answer: 8.12E-5 Molar

Question: And the CC50 (M14; Homo sapiens, M14, M14, 5-dose)?
Answer: > 100 µM

Question: And the GI50 (M14; Homo sapiens, M14, 5-dose)?
Answer: 15.5 µM

Question: And the GI% (M14; M14, 10 μM)?
Answer: 87%

Question: What about the “Growth Percent” value (M14; M14, 1.00E-5 Molar) of the same molecule?
Answer: 12.58%

Question: What about the TGI (M14; M14, 5-dose) of the same molecule?
Answer: 77.4 µM

Question: What about the TGI (M14; M14, 5-dose, listed as D - 835857) of the same molecule?
Answer: 7.74E-5 Molar

Question: What about the CC50 (M14; M14, 5-dose) of the same molecule?
Answer: < 100 µM

Question: And the GI50 (OVCAR-3; Homo sapiens, OVCAR-3, 5-dose)?
Answer: 13.1 µM

Question: What about the CC50 (OVCAR-3; Homo sapiens, OVCAR-3, 5-dose, read-out: LC50 (the source's name)) of the same molecule?
Answer: > 100 µM

Question: And the GI% (OVCAR-3; OVCAR-3, 10 μM)?
Answer: 94%

Question: And the “Growth Percent” value (OVCAR-3; OVCAR-3, 1.00E-5 Molar)?
Answer: 6.01%

Question: And the TGI (OVCAR-3; OVCAR-3, 5-dose)?
Answer: 5.13E-5 Molar

Question: And the LC50 (NCI-H23; Homo sapiens, NCI-H23, NCI-H23, 5-dose)?
Answer: > 100 µM

Question: And the GI50 (NCI-H23; Homo sapiens, NCI-H23, 5-dose)?
Answer: 15.7 µM

Question: And the GI% (NCI-H23; NCI-H23, 10 μM)?
Answer: 104%

Question: What about the “Growth Percent” value (NCI-H23; NCI-H23, 1.00E-5 Molar) of the same molecule?
Answer: -4.11%

Question: And the LC50 (NCI-H23; NCI-H23, 5-dose)?
Answer: < 100 µM

Question: And the TGI (NCI-H23; NCI-H23, 5-dose)?
Answer: 44.4 µM

Question: What about the TGI (NCI-H23; NCI-H23, 5-dose, listed as D - 835857) of the same molecule?
Answer: 4.44E-5 Molar

Question: What about the GI50 (U251; [4]) of the same molecule?
Answer: 5.58 µM

Question: What about the CC50 (U251; [4]) of the same molecule?
Answer: > 100 µM

Question: And the GI% (U251; U251, 10 μM)?
Answer: 82%

Question: What about the “Growth Percent” value (U251; U251, 1.00E-5 Molar) of the same molecule?
Answer: 18.45%

Question: And the GI50 (U251; U251, 5-dose)?
Answer: 5.6 µM

Question: And the TGI (U251; U251, 5-dose)?
Answer: 35.0 µM

Question: And the TGI (U251; U251, 5-dose, listed as D - 835857)?
Answer: 3.50E-5 Molar

Question: What about the CC50 (U251; U251, 5-dose) of the same molecule?
Answer: < 100 µM

Question: What about the CC50 (MOLT-4; Homo sapiens, MOLT-4, MOLT-4, 5-dose) of the same molecule?
Answer: > 100 µM

Question: What about the GI50 (MOLT-4; Homo sapiens, MOLT-4, 5-dose) of the same molecule?
Answer: 11.7 µM

Question: And the GI% (MOLT-4; MOLT-4, 10 μM)?
Answer: 89%

Question: And the “Growth Percent” value (MOLT-4; MOLT-4, 1.00E-5 Molar)?
Answer: 10.91%

Question: What about the TGI (MOLT-4; MOLT-4, 5-dose) of the same molecule?
Answer: <100 µM

Question: What about the TGI (MOLT-4; MOLT-4, 5-dose, listed as D - 835857) of the same molecule?
Answer: > 1.00E-4 Molar

Question: And the CC50 (MOLT-4; MOLT-4, 5-dose)?
Answer: < 100 µM

Question: What about the GI% (ACHN; 10 μM) of the same molecule?
Answer: 92%

Question: And the “Growth Percent” value (ACHN; 1.00E-5 Molar)?
Answer: 7.89%

Question: What about the GI50 (ACHN) of the same molecule?
Answer: 6.4 µM

Question: What about the TGI (ACHN) of the same molecule?
Answer: 91.1 µM

Question: What about the TGI (ACHN; listed as D - 835857) of the same molecule?
Answer: 9.11E-5 Molar

Question: And the CC50 (ACHN)?
Answer: < 100 µM

Question: And the GI50 (ACHN; Homo sapiens)?
Answer: 6.44 µM

Question: And the CC50 (ACHN; Homo sapiens)?
Answer: > 100 µM

Question: What about the CC50 (SK-MEL-28; Homo sapiens, SK-MEL-28, SK-MEL-28, 5-dose) of the same molecule?
Answer: > 100 µM

Question: What about the GI50 (SK-MEL-28; Homo sapiens, SK-MEL-28, 5-dose) of the same molecule?
Answer: 15.9 µM

Question: And the GI% (SK-MEL-28; SK-MEL-28, 10 μM)?
Answer: 71%

Question: And the “Growth Percent” value (SK-MEL-28; SK-MEL-28, 1.00E-5 Molar)?
Answer: 28.75%

Question: What about the TGI (SK-MEL-28; SK-MEL-28, 5-dose) of the same molecule?
Answer: 97.4 µM

Question: And the TGI (SK-MEL-28; SK-MEL-28, 5-dose, listed as D - 835857)?
Answer: 9.74E-5 Molar

Question: And the CC50 (SK-MEL-28; SK-MEL-28, 5-dose)?
Answer: < 100 µM

Question: And the GI50 (MDA-MB-435; Homo sapiens, MDA-MB-435)?
Answer: 13.9 µM

Question: What about the CC50 (MDA-MB-435; Homo sapiens, MDA-MB-435, MDA-MB-435, 5-dose) of the same molecule?
Answer: > 100 µM

Question: What about the GI% (MDA-MB-435; MDA-MB-435, 10 μM) of the same molecule?
Answer: 77%

Question: What about the “Growth Percent” value (MDA-MB-435; MDA-MB-435, 1.00E-5 Molar) of the same molecule?
Answer: 23.38%

Question: And the TGI (MDA-MB-435; MDA-MB-435, 5-dose)?
Answer: 87.2 µM

Question: What about the TGI (MDA-MB-435; MDA-MB-435, 5-dose, listed as D - 835857) of the same molecule?
Answer: 8.72E-5 Molar

Question: And the CC50 (MDA-MB-435; MDA-MB-435, 5-dose)?
Answer: < 100 µM

Question: And the CC50 (TK-10; Homo sapiens, TK-10, TK-10, 5-dose)?
Answer: > 100 µM

Question: What about the GI50 (TK-10; Homo sapiens, TK-10, 5-dose) of the same molecule?
Answer: 29.3 µM

Question: And the GI% (TK-10; TK-10, 10 μM)?
Answer: 41%

Question: What about the “Growth Percent” value (TK-10; TK-10, 1.00E-5 Molar) of the same molecule?
Answer: 58.93%

Question: What about the TGI (TK-10; TK-10, 5-dose) of the same molecule?
Answer: <100 µM

Question: And the TGI (TK-10; TK-10, 5-dose, listed as D - 835857)?
Answer: > 1.00E-4 Molar

Question: What about the CC50 (TK-10; TK-10, 5-dose) of the same molecule?
Answer: < 100 µM

Question: What about the GI50 (SF-295; Homo sapiens, SF-295, 5-dose) of the same molecule?
Answer: 7.04 µM

Question: What about the CC50 (SF-295; Homo sapiens, SF-295, 5-dose, read-out: LC50 (the source's name)) of the same molecule?
Answer: 86 µM

Question: What about the GI% (SF-295; SF-295, 10 μM) of the same molecule?
Answer: 94%

Question: What about the “Growth Percent” value (SF-295; SF-295, 1.00E-5 Molar) of the same molecule?
Answer: 5.81%

Question: And the TGI (SF-295; SF-295, 5-dose)?
Answer: 27.0 µM

Question: What about the TGI (SF-295; SF-295, 5-dose, listed as D - 835857) of the same molecule?
Answer: 2.70E-5 Molar

Question: What about the “Mean GI %” value ([1]; 10 μM, all cell lines) of the same molecule?
Answer: 84%

Question: And the “Mean Growth Percent” value ([1]; 1.00E-5 Molar, all cell lines)?
Answer: 15.81%

Question: What about the GI50 ([1]; read-out: Full panel MG-MID (GI50), full panel) of the same molecule?
Answer: 12 µM

Question: What about the GI50 ([1]; read-out: MG-MID (median GI50), Breast cancer subpanel) of the same molecule?
Answer: 11 µM

Question: And the GI50 ([1]; read-out: MG-MID (median GI50), CNS cancer subpanel)?
Answer: 8.04 µM

Question: And the GI50 ([1]; read-out: MG-MID (median GI50), Colon cancer subpanel)?
Answer: 13.7 µM

Question: What about the GI50 ([1]; read-out: MG-MID (median GI50), Leukaemia subpanel) of the same molecule?
Answer: 8.68 µM

Question: What about the GI50 ([1]; read-out: MG-MID (median GI50), Melanoma subpanel) of the same molecule?
Answer: 11.7 µM

Question: What about the GI50 ([1]; read-out: MG-MID (median GI50), Non-small cell lung cancer subpanel) of the same molecule?
Answer: 9.24 µM

Question: And the GI50 ([1]; read-out: MG-MID (median GI50), Ovarian cancer subpanel)?
Answer: 15.7 µM
